Experimental data: US12485119B2, “Methods of treating pulmonary arterial hypertension” (ACTELION PHARMACEUTICALS LTD, priority 2019, dated 2025)

What was measured:
[1] = test system: newly diagnosed, treatment-naïve subjects with PAH; assay: Exposure to study treatments, individual maintenance dose and maximum tolerated dose; format: in vivo, human; conditions: up to EOMOP; Safety Set
Experimental: The starting dose of double-blind selexipag or placebo on Day 15±3 is 200 μg twice daily (in the morning and in the evening). The dose is up-titrated in increments of 200 μg twice daily, usually at weekly intervals (see Table 1), until either a maximum dose of 1600 μg twice daily is reached or adverse pharmacological effects that cannot be tolerated or medically managed are experienced, whichever is first. In the event of adverse effects typical of prostanoid therapy, it is recommended not to discontinue double-blind treatment because these effects are usually transient or manageable with symptomatic treatment. If a dose that cannot be tolerated is reached, the dose should be reduced to the previous dose level.

[2] = test system: newly diagnosed, treatment-naïve subjects with PAH
Source text: The following safety endpoints will be used: • Treatment-emergent AEs. • AEs leading to premature discontinuation of any of the 3 study treatments. • Treatment-emergent SAEs. • Treatment-emergent deaths. • Treatment-emergent marked laboratory abnormalities. • Change from baseline in laboratory variables. • Change from baseline in vital signs.
The safety endpoints will be analyzed for the following time periods: • From Day 1 until EOMOP. • From Day 1 until start of double-blind treatment (selexipag/placebo). • From start until discontinuation of macitentan study treatment (or until EOMOP, whichever is first)+30 days safety follow up. • From start until discontinuation of tadalafil study treatment (or until EOMOP, whichever is first)+30 days safety follow up. • From start until discontinuation of double-blind treatment (or until EOMOP, whichever is first)+30 days safety follow up. • From EOMOP until EOT plus 30 days safety follow-up. • The 30 days safety follow-up.

[3] = risk TEAEs (EU Uptravi RMP) up to EOMOP

CC(C)N(CCCCOCC(=O)NS(C)(=O)=O)c1cnc(-c2ccccc2)c(-c2ccccc2)n1 [Selexipag, 2-{4-[(5,6-diphenylpyrazin-2-yl)(propan-2-yl)amino]butoxy}-N-(methanesulfonyl)acetamide]
Maximum tolerated dose of double-blind treatment (b.i.d), Median [1]: 1000.0 µg | Tolerability as part of the initial triple therapy regimen ([2]; in vivo): well-tolerated | Bleeding events: PT Blood loss anaemia, % [2, 3]: (0.8) % | Bleeding events: PT Conjunctival haemorrhage, % [2, 3]: (0.8) % | Bleeding events: PT Contusion, % [2, 3]: (0.8) % | Bleeding events: PT Epistaxis, % [2, 3]: (9.2) % | Bleeding events: PT Gastrointestinal haemorrhage, % [2, 3]: (3.4) % | Bleeding events: PT Gastrointestinal polyp haemorrhage, % [2, 3]: (0.8) % | Bleeding events: PT Gingival bleeding, % [2, 3]: (0.8) % | Bleeding events: PT Haematochezia, % [2, 3]: (0.8) % | Bleeding events: PT Haematoma, % [2, 3]: (1.7) % | Bleeding events: PT Haemoptysis, % [2, 3]: (0.8) % | Bleeding events: PT Haemorrhoidal haemorrhage, % [2, 3]: (0.8) % | Bleeding events: PT Hereditary haemorrhagic telangiectasia, % [2, 3]: (0.8) % | Bleeding events: PT Melaena, % [2, 3]: (0.8) % | Bleeding events: PT Menorrhagia, % [2, 3]: (0.8) % | Bleeding events: PT Metrorrhagia, % [2, 3]: (1.7) % | Bleeding events: PT Upper gastrointestinal haemorrhage, % [2, 3]: (1.7) % | Bleeding events: PT Vaginal haemorrhage, % [2, 3]: (0.8) % | Bleeding events: PT Vascular rupture, % [2, 3]: (0.8) % | GI intussusception risk: PT Small intestinal obstruction, % [2, 3]: (0.8) % | MACE: PT Transient ischaemic attack, % [2, 3]: (0.8) % | Medication errors: PT Accidental overdose, % [2, 3]: (0.8) % | Ophthalmological risk: PT Blindness, % [2, 3]: (0.8) % | Ophthalmological risk: PT Photopsia, % [2, 3]: (0.8) % | Ophthalmological risk: PT Retinal vasculitis, % [2, 3]: (0.8) % | Ophthalmological risk: PT Vision blurred, % [2, 3]: (1.7) % | Ophthalmological risk: PT Vitreous floaters, % [2, 3]: (0.8) % | PVOD/pulmonary oedema risk: PT Pulmonary oedema, % [2, 3]: (0.8) % | PVOD/pulmonary oedema risk: PT Pulmonary veno-occlusive disease, % [2, 3]: (0.8) % | Renal risk: PT Acute kidney injury, % [2, 3]: (3.4) % | Renal risk: PT Blood creatinine increased, % [2, 3]: (2.5) % | Renal risk: PT Glomerular filtration rate decreased, % [2, 3]: (0.8) % | Renal risk: PT Prerenal failure, % [2, 3]: (0.8) % | Renal risk: PT Renal failure, % [2, 3]: (0.8) % | Renal risk: PT Renal impairment, % [2, 3]: (0.8) % | Risk Anaemia (all PTs), % [2, 3]: (25.2) % | Risk Anaemia: PT Anaemia, % [2, 3]: (12.6) % | Risk Anaemia: PT Blood loss anaemia, % [2, 3]: (0.8) % | Risk Anaemia: PT Haematocrit decreased, % [2, 3]: (0.8) % | Risk Anaemia: PT Haemoglobin decreased, % [2, 3]: (6.7) % | Risk Anaemia: PT Iron deficiency anaemia, % [2, 3]: (6.7) % | Risk Anaemia: PT Microcytic anaemia, % [2, 3]: (1.7) % | Risk Anaemia: PT Red blood cell count decreased, % [2, 3]: (0.8) % | Risk Bleeding events (all PTs), % [2, 3]: (21.8) % | Risk Gastrointestinal disturbances denoting intestinal intussusception (manifested as ileus or obstruction), % [2, 3]: (0.8) % | Risk Hypotension (all PTs), % [2, 3]: (8.4) % | Risk Hypotension: PT Hypotension, % [2, 3]: (7.6) % | Risk Hypotension: PT Orthostatic hypotension, % [2, 3]: (0.8) % | Risk Light-dependent non-melanoma skin malignancies (all PTs), % [2, 3]: (0.8) % | Risk Major adverse cardiovascular events (MACE) (all PTs), % [2, 3]: (0.8) % | Risk Medication errors (all PTs), % [2, 3]: (0.8) % | Risk Ophthalmological effects associated to retinal vascular system (all PTs), % [2, 3]: (4.2) % | Risk Pulmonary venoocclusive disease associated with pulmonary oedema (all PTs), % [2, 3]: (1.7) % | Risk Renal function impairment/acute renal failure (all PTs), % [2, 3]: (8.4) % | Skin malignancies risk: PT Basal cell carcinoma, % [2, 3]: (0.8) % | Subjects with At Least One Identified or Potential Risk AE, % [2, 3]: (49.6) %
